target: T1, dopamine D3 receptor (Homo sapiens, UniProt P35462); experiment: GTPγS scintillation proximity assay (GTPγS-SPA), antagonist format, CHO_D3 membranes; type: biochemical; conditions: difference in functional pKi at D3 versus the opposite enantiomer of the same Example
T1 construct: expressed in transfected cells; membrane preparation
Description: Functional potency and intrinsic activity of compounds of this invention can be measured by the following GTPγS scintillation proximity assay (GTPγS-SPA). Cells used in the study are Chinese Hamster Ovary (CHO) Cells.
Cell membranes are prepared as follows. Cell pellets are resuspended in 10 volumes of 50 mM HEPES, 1 mM EDTA pH 7.4, using KOH. On the day the following proteases are added to the buffer just prior to giving the homogenisation buffer. 10^−6M Leupeptin(Sigma L2884)−5000×stock=5 mg/ml in buffer 25 ug/ml Bacitracin(Sigma B0125)−1000×stock=25 mg/ml in buffer 1 mM PMSF−1000×stock=17 mg/ml in 100% ethanol 2×10^−6M Pepstain A−1000×stock=2 mM in 100% DMSO
The cells are homogenised by 2×15 second bursts in a 1 litre Glass Waring blender in a class two biohazard cabinet. The resulting suspension is spun at 500 g for 20 mins (Beckman T21 centrifuge: 1550 rpm). The supernatant is withdrawn with a 25 ml pipette, aliquotted into pre-chilled centrifuge tubes and spun at 48,000 g to pellet membrane fragments (Beckman T1270: 23,000 rpm for 30 mins). The final 48,000 g pellet is resuspended in Homogenisation Buffer, (4× the volume of the original cell pellet). The 48,000 g pellet is resuspended by vortexing for 5 seconds and homogenized in a dounce homogenizer 10-15 stokes. The prep is distributed into appropriate sized aliquots, (200-1000 ul), in polypropylene tubes and store at −80° C. Protein content in the membrane preparations is evaluated with the Bradford protein assay.
The final top concentration of test drug is 3 uM in the assay and 11 points serial dilution curves 1:4 in 100% DMSO are carried out using a Biomek FX. The test drug at 1% total assay volume (TAV) is added to a solid, white, 384 well assay plate. 50% TAV of precoupled (for 90 mins at 4° C.) membranes, 5 μg/well, and Wheatgerm Agglutinin Polystyrene Scintillation Proximity Assay beads (RPNQ0260, Amersham), 0.25 mg/well, in 20 mM HEPES pH 7.4, 100 mM NaCl, 10 mM MgCl2, 60 μg/ml saponin and 30 μM GDP is added. The third addition was a 20% TAV addition of either buffer, (agonist format) or EC80 final assay concentration of agonist, Quinelorane, prepared in assay buffer (antagonist format). The assay was started by the addition of 29% TAV of GTPγ[^35S] 0.38 nM final (37 MBq/ml, 1160 Ci/mmol, Amersham). After all additions assay plates are spun down for 1 min at 1,000 rpm. Assay plates are counted on a Viewlux, 613/55 filter, for 5 min., between 2-6 hours after the final addition.
The effect of the test drug over the basal generates EC50 value by an iterative least squares curve fitting programme, expressed in the table as pEC50 (i.e. −log EC50). The ratio between the maximal effect of the test drug and the maximal effect of full agonist, Quinelorane, generates the Intrinsic Activity (IA) value (i.e. IA=1 full agonist, IA<1 partial agonist). fpKi values of test drug are calculated from the IC50 generated by “antagonist format” experiment, using Cheng & Prusoff equation: fKi=IC50/1+([A]/EC50) where: [A] is the concentration of the agonist […] in the assay and EC50 is the 5-HT EC50 value obtained in the same experiment. fpKi is defined as −log fKi.

T1 sequence (P35462 whole entry): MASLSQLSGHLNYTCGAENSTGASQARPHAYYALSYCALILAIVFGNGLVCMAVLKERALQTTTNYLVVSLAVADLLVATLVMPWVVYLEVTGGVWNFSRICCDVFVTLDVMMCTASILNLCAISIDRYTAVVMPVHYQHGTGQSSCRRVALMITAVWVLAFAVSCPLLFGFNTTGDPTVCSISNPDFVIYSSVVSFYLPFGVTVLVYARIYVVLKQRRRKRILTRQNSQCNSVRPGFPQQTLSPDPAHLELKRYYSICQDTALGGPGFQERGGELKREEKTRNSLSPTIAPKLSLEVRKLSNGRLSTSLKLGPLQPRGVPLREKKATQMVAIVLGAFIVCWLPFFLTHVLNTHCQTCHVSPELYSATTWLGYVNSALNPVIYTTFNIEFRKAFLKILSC

Row | SMILES | fpKi (D3) higher than the other Enantiomer
1 | COc1ccc([C@]23C[C@H]2CN(CCCSc2nnc(-c4cccc5nc(C)ccc45)n2C)C3)cc1 (single isomer, unassigned) [Example 1 Enantiomer 1] | > 1 log-unit
2 | Cc1ccc2c(-c3nnc(SCCCN4C[C@@H]5C[C@]5(c5ccc(Br)cc5)C4)n3C)cccc2n1 (single isomer, unassigned) [Example 2 Enantiomer 2] | > 1 log-unit
3 | Cc1ccc2c(-c3nnc(SCCCN4C[C@@H]5C[C@]5(c5ccccc5)C4)n3C)cccc2n1 (single isomer, unassigned) [Example 3 Enantiomer 2] | > 1 log-unit
4 | Cc1ccc2c(-c3nnc(SCCCN4C[C@@H]5C[C@]5(c5ccc(Cl)c(Cl)c5)C4)n3C)cccc2n1 (single isomer, unassigned) [Example 4 Enantiomer 1] | > 0.6 log-unit
5 | Cc1ccc2c(-c3nnc(SCCCN4C[C@@H]5C[C@]5(c5ccc(C(C)(C)C)cc5)C4)n3C)cccc2n1 (single isomer, unassigned) [Example 5 Enantiomer 2] | > 0.9 log-unit
6 | Cc1ncoc1-c1nnc(SCCCN2C[C@@H]3C[C@]3(c3ccc(Br)cc3)C2)n1C (single isomer, unassigned) [Example 9 Enantiomer 1] | > 1 log-unit
7 | Cc1ncoc1-c1nnc(SCCCN2C[C@@H]3C[C@]3(c3ccc(C(F)(F)F)cc3F)C2)n1C.Cl (single isomer, unassigned) [Example 16 Enantiomer 2] | > 1 log-unit
8 | Cc1ncoc1-c1nnc(SCCCN2C[C@@H]3C[C@]3(c3cccc(C(F)(F)F)c3)C2)n1C (single isomer, unassigned) [Example 17 Enantiomer 1] | > 1 log-unit
9 | COc1ccc([C@]23C[C@H]2CN(CCCSc2nnc(-c4ocnc4C)n2C)C3)cc1C(C)=O (single isomer, unassigned) [Example 19 Enantiomer 1] | > 1 log-unit
10 | Cc1ncoc1-c1nnc(SCCCN2C[C@@H]3C[C@]3(c3ccc(Cl)cc3)C2)n1C (single isomer, unassigned) [Example 20 Enantiomer 1] | > 1 log-unit
11 | Cc1ncoc1-c1nnc(SCCCN2C[C@@H]3C[C@]3(c3ccc(F)cc3)C2)n1C (single isomer, unassigned) [Example 21 Enantiomer 1] | > 1 log-unit
12 | Cc1ncoc1-c1nnc(SCCCN2C[C@]3(C)C[C@@]3(c3cccc(Cl)c3)C2)n1C (single isomer, unassigned) [Example 22 Enantiomer 1] | > 1 log-unit
13 | Cc1ncoc1-c1nnc(SCCCN2C[C@@H]3C[C@]3(c3cccc(F)c3)C2)n1C (single isomer, unassigned) [Example 23 Enantiomer 1] | > 1 log-unit
14 | COc1cccc([C@]23C[C@H]2CN(CCCSc2nnc(-c4ocnc4C)n2C)C3)c1 (single isomer, unassigned) [Example 24 Enantiomer 1] | > 1 log-unit
15 | Cc1ncoc1-c1nnc(SCCCN2C[C@@H]3C[C@]3(c3ccc(OC(F)(F)F)cc3)C2)n1C (single isomer, unassigned) [Example 30 Enantiomer 1] | > 1 log-unit
16 | Cc1ncoc1-c1nnc(SCCCN2C[C@@H]3C[C@]3(c3cc(C(F)(F)F)ccc3F)C2)n1C (single isomer, unassigned) [Example 36 Enantiomer 2] | > 1 log-unit
17 | CCC(=O)c1cc([C@]23C[C@H]2CN(CCCSc2nnc(-c4ocnc4C)n2C)C3)ccc1OC (single isomer, unassigned) [Example 71 Enantiomer 1] | > 1 log-unit
18 | Cc1nc2cc([C@]34C[C@H]3CN(CCCSc3nnc(-c5ocnc5C)n3C)C4)ccc2s1 (single isomer, unassigned) [Example 72 Enantiomer 1] | > 1 log-unit
19 | Cc1ncoc1-c1nnc(SCCCN2C[C@@H]3C[C@]3(c3ccc4c(cnn4C)c3)C2)n1C (single isomer, unassigned) [Example 74 Enantiomer 1] | > 1 log-unit
20 | Cc1ncoc1-c1nnc(SCCCN2C[C@@H]3C[C@]3(c3ccc(C(F)(F)F)cn3)C2)n1C (single isomer, unassigned) [Example 96 Enantiomer 2] | > 1 log-unit
21 | Cc1ccc2c(-c3nnc(SCCCN4CC5CC5(c5ccc(Cl)cc5)C4)n3C)cccc2n1 (single isomer, unassigned; enantiomer 1) [Example 29 Enantiomer 1] | > 1 log-unit
22 | Cc1ncoc1-c1nnc(SCCCN2C[C@@H]3C[C@]3(c3cc(F)cc(C(F)(F)F)c3)C2)n1C (single isomer, unassigned; enantiomer 1) [Example 110 Enantiomer 1] | > 1 log-unit
23 | Cc1ncoc1-c1nnc(SCCCN2C[C@@H]3C[C@]3(c3cccc(C(F)(F)F)c3F)C2)n1C (single isomer, unassigned; enantiomer 2) [Example 111 Enantiomer 2] | > 1 log-unit
